Here are results for two compounds from patent US20210030039A1, “Prebiotic Compositions And Methods Of Production Thereof” (Optibiotix Limited, priority 2018, published 2021).

The conditions of assay [1]: reported; cited from earlier work.
Assay [2] can be described thus: Sensory profiling (QDA) by trained sensory panel, unstructured line scales 0-100. In kind it is in vivo, human. An excerpt:
A trained sensory panel at the Reading Sensory Science Centre (UK) were employed for sensory profiling of the samples. There were 10 panellists with between 1 and 9 years' experience. A QDA (quantitative descriptive analysis) profiling approach was taken. The panel used the same vocabulary that they had developed as a consensus for the tasting sessions including the term liquorice flavour which is characteristic note of steviol glycosides. The panel were retrained at the start of the sample set over 3 separate tasting sessions. This re-training focused on ensuring that they could reliably score sweetness relative to the new concentration of sucrose standard positions. Rating was carried out independently using unstructured lines scales (scaled 0-100), in duplicate, in isolated sensory booths. However, in order to improve discrimination for sweetness, the four sucrose samples were used as standards and the mean values for each of these samples, as agreed by the panel, are shown in Table 1 below. At the start of each scoring session the panel tasted the four reference samples in order of increasing strength to re-familiarise themselves with the positioning of these levels of sweetness on the line scale. The reference samples (10 mL) were served in transparent polystyrene cups (30 mL). They then palate cleansed with warm filtered tap water and low salt crackers (Carr's water crackers) before commencing the sample tasting session, and again between each sample scoring session. Samples, labelled with random 3 digit codes, were presented in a balanced presentation order in a monadic sequential manner with a maximum of 6 samples per day. Samples were served at 23-24° C. (room temperature) with air conditioning of the room set to 23° C.

Turning to `C[C@H](CC[C@@H](O[C@@H]1O[C@H](CO[C@@H]2O[C@H](CO)[C@@H](O)[C@H](O)[C@H]2O)[C@@H](O)[C@H](O)[C@H]1O[C@@H]1O[C@H](CO)[C@@H](O)[C@H](O)[C@H]1O)C(C)(C)O)[C@H]1CC[C@@]2(C)[C@@H]3CC=C4[C@@H](CC[C@H](O[C@@H]5O[C@H](CO[C@@H]6O[C@H](CO)[C@@H](O)[C@H](O)[C@H]6O)[C@@H](O)[C@H](O)[C@H]5O)C4(C)C)[C@]3(C)[C@H](O)C[C@]12C` [Mogroside V], the “sweet potency relative to sucrose” value in assay [1] was approximately 400 ×.
On to `OC[C@H]1O[C@@](CO)(O[C@H]2O[C@H](CO)[C@@H](O)[C@H](O)[C@H]2O)[C@@H](O)[C@@H]1O` [Sucrose], for which the “Mean Rating (0-100), sweetness standard” value in assay [2] (Standard 1, sucrose 2.0 % w/v) was 10; in assay [2] (Standard 2, sucrose 4.0 % w/v), 35; in assay [2] (Standard 3, sucrose 6.0 % w/v), 75; in assay [2] (Standard 4, sucrose 8.0 % w/v), 100.
